The text below walks through data of the OligoGym collection.

Values joined by “and” are separate entries in the source; they are usually repeats but may differ in a detail not shown here. Equal values may be shown once. HELM strings list units from the 5' end as sugar, base in round brackets, then linkage (d deoxyribose, r ribose, m 2'-O-methyl, p phosphodiester). Strings are as the collection lists them, not checked against the first reports. ss, as = sense and antisense strand; [lna] = locked nucleic acid (LNA); [una] = unlocked nucleic acid; [s4r] = 4'-thioribose; [fl2r] = 2'-fluoro
Further: test system not given here.

For this series the following is noted: siRNA.
In turn, “RNA1{r(C)p.r(C)p.r(G)p.r(A)p.r(A)p.r(G)p.r(A)p.r(C)p.r(G)p.m(A)p.m(A)p.r(G)p.r(C)p.m(U)p.r(A)p.m(U)p.r(G)p.r(A)p.r(A)p.r(T)p.r(T)}|RNA2{r(U)p.r(U)p.m(C)p.r(A)p.m(U)p.r(A)p.r(G)p.r(C)p.r(U)p.r(U)p.r(C)p.r(G)p.r(U)p.r(C)p.r(U)p.r(U)p.r(C)p.r(G)p.r(G)p.r(T)p.r(T)}$$$RNA1{StrandType:ss}|RNA2{StrandType:as}$” registered a target mRNA knockdown of 69%. The substance “RNA1{r(A)p.r(C)p.r(C)p.r(U)p.r(U)p.r(U)p.r(C)p.r(C)p.r(A)p.r(C)p.r(U)p.r(U)p.r(C)p.r(U)p.r(A)p.r(A)p.r(G)p.r(C)p.r(C)p.r(T)p.r(T)}|RNA2{r(G)p.r(G)p.r(C)p.m(U)p.m(U)p.r(A)p.r(G)p.r(A)p.r(A)p.r(G)p.m(U)p.r(G)p.r(G)p.r(A)p.r(A)p.r(A)p.r(G)p.r(G)p.m(U)p.r(T)p.r(T)}$$$RNA1{StrandType:ss}|RNA2{StrandType:as}$” came in with a target mRNA knockdown of 80%. The substance “RNA1{r(C)p.r(G)p.r(G)p.r(G)p.[fl2r](U)p.[fl2r](A)p.r(C)p.r(G)p.r(A)p.r(G)p.r(C)p.r(C)p.r(G)p.r(G)p.r(A)p.r(A)p.r(C)p.r(C)p.r(U)p.r(T)p.r(T)}|RNA2{r(A)p.r(G)p.r(G)p.r(U)p.r(U)p.r(C)p.r(C)p.r(G)p.r(G)p.r(C)p.r(U)p.r(C)p.r(G)p.[fl2r](U)p.r(A)p.r(C)p.r(C)p.r(C)p.r(G)p.r(T)p.r(T)}$$$RNA1{StrandType:ss}|RNA2{StrandType:as}$” yielded a target mRNA knockdown of 68%. The same measure for “RNA1{[lna](T)p.r(G)p.r(A)p.r(G)p.r(A)p.r(G)p.r(A)p.r(A)p.r(A)p.r(G)p.r(C)p.r(A)p.r(C)p.r(A)p.r(G)p.r(A)p.r(A)p.r(A)p.r(A)p.[lna](T)p.[lna](T)}|RNA2{r(U)p.r(U)p.r(U)p.r(U)p.r(C)p.r(U)p.r(G)p.r(U)p.r(G)p.r(C)p.r(U)p.r(U)p.r(U)p.r(C)p.r(U)p.r(C)p.r(U)p.r(C)p.r(A)p.r(T)p.r(T)}$$$RNA1{StrandType:ss}|RNA2{StrandType:as}$”: 74%; for “RNA1{r(G)p.m(C)p.r(A)p.r(G)p.r(A)p.r(G)p.r(A)p.r(A)p.m(U)p.m(C)p.m(U)p.r(A)p.m(C)p.m(C)p.m(U)p.m(U)p.m(U)p.m(C)p.m(C)p.r(T)p.r(T)}|RNA2{r(G)p.r(G)p.r(A)p.r(A)p.r(A)p.r(G)p.r(G)p.m(U)p.r(A)p.r(G)p.r(A)p.m(U)p.m(U)p.m(C)p.m(U)p.m(C)p.m(U)p.r(G)p.m(C)p.r(T)p.r(T)}$$$RNA1{StrandType:ss}|RNA2{StrandType:as}$”: 13%; for “RNA1{r(A)p.r(G)p.r(A)p.r(A)p.r(A)p.r(C)p.r(G)p.r(C)p.r(A)p.r(G)p.m(U)p.m(A)p.r(A)p.r(U)p.r(C)p.r(C)p.r(G)p.r(G)p.r(A)p.r(T)p.r(T)}|RNA2{r(U)p.r(C)p.r(C)p.r(G)p.r(G)p.r(A)p.r(U)p.m(U)p.r(A)p.r(C)p.r(U)p.r(G)p.r(C)p.r(G)p.r(U)p.r(U)p.r(U)p.r(C)p.r(U)p.r(T)p.r(T)}$$$RNA1{StrandType:ss}|RNA2{StrandType:as}$”: 85%. As for “RNA1{r(C)p.r(G)p.r(U)p.r(A)p.r(C)p.r(G)p.r(C)p.r(G)p.r(G)p.r(A)p.r(A)p.r(U)p.r(A)p.r(C)p.r(U)p.r(U)p.r(C)p.r(G)p.r(A)p.r(T)p.r(T)}|RNA2{r(U)p.r(C)p.r(G)p.r(A)p.r(A)p.r(G)p.[s4r](U)p.[s4r](A)p.[s4r](U)p.[s4r](U)p.[s4r](C)p.[s4r](C)p.[s4r](G)p.r(C)p.r(G)p.r(U)p.r(A)p.r(C)p.r(G)p.r(T)p.r(T)}$$$RNA1{StrandType:ss}|RNA2{StrandType:as}$”, the figure is 36.5%.

Turning to “RNA1{[s4r](C)p.[s4r](G)p.[s4r](U)p.[s4r](A)p.[s4r](C)p.[s4r](G)p.r(C)p.r(G)p.r(G)p.r(A)p.r(A)p.r(U)p.r(A)p.[s4r](C)p.[s4r](U)p.[s4r](U)p.[s4r](C)p.[s4r](G)p.[s4r](A)p.r(T)p.r(T)}|RNA2{r(U)p.r(C)p.r(G)p.r(A)p.r(A)p.r(G)p.r(U)p.r(A)p.r(U)p.r(U)p.r(C)p.r(C)p.r(G)p.r(C)p.r(G)p.[s4r](U)p.[s4r](A)p.[s4r](C)p.[s4r](G)p.r(T)p.r(T)}$$$RNA1{StrandType:ss}|RNA2{StrandType:as}$”, the target mRNA knockdown was 44.4%.

In the case of “RNA1{r(U)p.r(U)p.r(U)p.m(G)p.r(A)p.r(U)p.m(C)p.r(A)p.r(G)p.r(C)p.r(G)p.r(G)p.r(A)p.r(G)p.r(A)p.r(C)p.r(U)p.r(C)p.r(G)p.r(T)p.r(T)}|RNA2{r(C)p.r(G)p.r(A)p.r(G)p.r(U)p.r(C)p.r(U)p.r(C)p.r(C)p.r(G)p.r(C)p.r(U)p.r(G)p.r(A)p.r(U)p.r(C)p.r(A)p.r(A)p.r(A)p.r(T)p.r(T)}$$$RNA1{StrandType:ss}|RNA2{StrandType:as}$”, the target mRNA knockdown worked out at 82%. “RNA1{m(U)p.r(A)p.r(G)p.r(C)p.r(C)p.r(A)p.r(G)p.r(A)p.r(G)p.r(C)p.r(C)p.r(A)p.r(A)p.r(A)p.r(G)p.r(A)p.r(A)p.r(G)p.r(C)p.r(T)p.r(T)}|RNA2{r(G)p.r(C)p.r(U)p.r(U)p.r(C)p.r(U)p.r(U)p.r(U)p.r(G)p.r(G)p.r(C)p.r(U)p.r(C)p.r(U)p.r(G)p.r(G)p.r(C)p.m(U)p.r(A)p.r(T)p.r(T)}$$$RNA1{StrandType:ss}|RNA2{StrandType:as}$”: the target mRNA knockdown was 82%. “RNA1{m(C)p.r(U)p.m(A)p.r(C)p.m(C)p.r(U)p.m(U)p.r(C)p.m(U)p.r(C)p.m(C)p.r(U)p.m(C)p.r(U)p.m(U)p.r(C)p.m(U)p.r(C)p.m(C)p.r(T)p.r(T)}|RNA2{r(G)p.r(G)p.r(A)p.r(G)p.r(A)p.r(A)p.r(G)p.r(A)p.r(G)p.r(G)p.r(A)p.r(G)p.r(A)p.r(A)p.r(G)p.r(G)p.r(U)p.r(A)p.r(G)p.r(T)p.r(T)}$$$RNA1{StrandType:ss}|RNA2{StrandType:as}$” yielded a target mRNA knockdown of 27%. As for “RNA1{r(C)p.r(U)p.r(C)p.r(C)p.r(C)p.r(C)p.r(A)p.r(G)p.r(U)p.r(C)p.r(U)p.r(C)p.r(U)p.r(C)p.r(U)p.r(U)p.m(A)p.r(A)p.r(A)p.r(T)p.r(T)}|RNA2{r(U)p.r(U)p.r(U)p.m(A)p.r(A)p.r(G)p.r(A)p.r(G)p.r(A)p.r(G)p.r(A)p.r(C)p.r(U)p.r(G)p.r(G)p.r(G)p.r(G)p.r(A)p.r(G)p.r(T)p.r(T)}$$$RNA1{StrandType:ss}|RNA2{StrandType:as}$”, the figure is 69%; as for “RNA1{r(A)p.m(U)p.r(G)p.r(G)p.r(G)p.r(A)p.r(G)p.r(A)p.r(A)p.r(G)p.m(U)p.r(A)p.r(G)p.r(U)p.r(C)p.r(C)p.r(C)p.r(C)p.r(C)p.r(T)p.r(T)}|RNA2{r(G)p.r(G)p.r(G)p.r(G)p.r(G)p.r(A)p.r(C)p.m(U)p.r(A)p.r(C)p.r(U)p.r(U)p.r(C)p.r(U)p.r(C)p.r(C)p.m(C)p.r(A)p.r(U)p.r(T)p.r(T)}$$$RNA1{StrandType:ss}|RNA2{StrandType:as}$”, 82%.

“RNA1{[una](U)p.r(G)p.r(A)p.r(A)p.r(U)p.r(C)p.r(A)p.r(G)p.r(A)p.r(A)p.r(G)p.r(A)p.r(U)p.r(G)p.r(A)p.r(A)p.r(G)p.r(U)p.r(C)p.r(A)p.r(A)}|RNA2{[una](G)p.r(A)p.r(C)p.r(U)p.r(U)p.r(C)p.r(A)p.r(U)p.r(C)p.r(U)p.r(U)p.r(C)p.r(U)p.r(G)p.r(A)p.r(U)p.r(U)p.r(C)p.r(A)p.r(A)p.r(G)}$$$RNA1{StrandType:ss}|RNA2{StrandType:as}$”: the target mRNA knockdown came to 0%. The same measure for “RNA1{m(G)p.r(U)p.m(A)p.r(C)p.m(U)p.r(C)p.m(U)p.r(G)p.m(A)p.r(U)p.m(G)p.r(A)p.m(G)p.r(G)p.m(A)p.r(A)p.m(G)p.r(A)p.m(G)p.r(T)p.r(T)}|RNA2{r(C)p.r(U)p.r(C)p.r(U)p.r(U)p.r(C)p.r(C)p.r(U)p.r(C)p.r(A)p.r(U)p.r(C)p.r(A)p.r(G)p.r(A)p.r(G)p.r(U)p.r(A)p.r(C)p.r(T)p.r(T)}$$$RNA1{StrandType:ss}|RNA2{StrandType:as}$”: 18%; for “RNA1{r(U)p.r(C)p.r(C)p.r(U)p.r(A)p.r(C)p.r(A)p.r(G)p.r(C)p.r(A)p.r(C)p.r(A)p.r(A)p.r(C)p.r(A)p.r(A)p.r(A)p.r(U)p.r(G)p.d(U)p.d(G)}|RNA2{r(C)p.r(A)p.r(U)p.r(U)p.r(U)p.r(G)p.r(U)p.r(U)p.r(G)p.r(U)p.r(G)p.r(C)p.r(U)p.r(G)p.r(U)p.r(A)p.r(G)p.r(G)p.r(A)p.d(A)p.d(G)}$$$RNA1{StrandType:ss}|RNA2{StrandType:as}$”: 25% and 0%. The same measure for “RNA1{r(A)p.r(G)p.r(A)p.r(C)p.[fl2r](U)p.r(A)p.r(A)p.r(G)p.r(C)p.r(C)p.r(C)p.r(A)p.r(A)p.r(A)p.r(A)p.r(G)p.r(G)p.r(G)p.r(C)p.r(T)p.r(T)}|RNA2{r(G)p.r(C)p.r(C)p.r(C)p.r(U)p.r(U)p.r(U)p.r(U)p.r(G)p.r(G)p.r(G)p.r(C)p.r(U)p.[fl2r](U)p.r(A)p.r(G)p.r(U)p.r(C)p.r(U)p.r(T)p.r(T)}$$$RNA1{StrandType:ss}|RNA2{StrandType:as}$”: 47%; for “RNA1{r(C)p.r(G)p.r(A)p.r(C)p.r(G)p.r(A)p.r(U)p.r(U)p.r(C)p.r(U)p.r(U)p.r(C)p.[fl2r](U)p.r(A)p.r(C)p.r(U)p.r(C)p.r(A)p.r(A)p.r(T)p.r(T)}|RNA2{r(U)p.r(U)p.r(G)p.r(A)p.r(G)p.[fl2r](U)p.r(A)p.r(G)p.r(A)p.r(A)p.r(G)p.r(A)p.r(A)p.r(U)p.r(C)p.r(G)p.r(U)p.r(C)p.r(G)p.r(T)p.r(T)}$$$RNA1{StrandType:ss}|RNA2{StrandType:as}$”: 67%. The same measure for “RNA1{r(C)p.r(G)p.r(A)p.r(G)p.m(U)p.r(G)p.r(U)p.r(C)p.m(U)p.r(A)p.r(A)p.r(C)p.r(G)p.r(G)p.r(G)p.r(A)p.r(G)p.r(C)p.r(C)p.r(T)p.r(T)}|RNA2{r(G)p.r(G)p.r(C)p.r(U)p.r(C)p.r(C)p.r(C)p.r(G)p.r(U)p.m(U)p.r(A)p.r(G)p.r(A)p.m(C)p.r(A)p.r(C)p.r(U)p.r(C)p.r(G)p.r(T)p.r(T)}$$$RNA1{StrandType:ss}|RNA2{StrandType:as}$”: 65%; for “RNA1{r(A)p.r(U)p.r(C)p.r(G)p.r(A)p.r(C)p.r(C)p.[fl2r](U)p.r(G)p.r(A)p.r(A)p.r(G)p.r(G)p.r(A)p.r(G)p.[fl2r](U)p.r(A)p.r(C)p.r(G)p.r(T)p.r(T)}|RNA2{r(C)p.r(G)p.[fl2r](U)p.r(A)p.r(C)p.r(U)p.r(C)p.r(C)p.r(U)p.r(U)p.[fl2r](C)p.r(A)p.r(G)p.r(G)p.r(U)p.r(C)p.r(G)p.r(A)p.r(U)p.r(T)p.r(T)}$$$RNA1{StrandType:ss}|RNA2{StrandType:as}$”: 46%.
